Test results taken from patent publication US20050112123A1, “Methods of treating proteinuria” (priority 2003, published 2005).

Legend:
mouse podocytes = test: MTT cell proliferation assay, mouse podocytes; assay type: cell-based; settings: at higher concentrations of ATRA than required with rat podocytes
Procedure: (§1) Experiments were also performed on podocytes derived from C57/bl mice. Glomeruli were sieved and prepared as previously described. […] 61:40-50. Podocytes were grown on collagen 1 coated plates with MGEC-media containing 5% fetal bovine serum (FBS: Summit biotechnology, Ft. Collins, Colo., USA), penicillin (100 U/ml), streptomycin (100 μg/ml), and glutamine (2 mmol/L; all Irvine Scientific, Santa Ana, Calif., USA) at 37° C. in 95% air/5% CO2. Podocytes were identified by previously described criteria (Shankland et al. (1999) supra) and by confirming the presence of podocyte specific proteins—including WT-1, nephrin, podocin, and ezrin—by immunostaining.
(§2) Exposure ofpodocvtes to ATRA. Rat podocytes, mouse podocytes, and growth permissive HSMP were plated at a concentration of 15,000 cell/cm^2 in standard media and allowed to adhere overnight.

primary mouse podocytes = test: Western blot analysis of nephrin and podocin, primary mouse podocytes; assay type: cell-based; settings: primary mouse cultures, FIG. 2
Procedure: as §1, §2

[1] = system: Tg-26 HIV transgenic heterozygous mice; test: Tg-26 HIV transgenic mice (HIV-associated nephropathy) in vivo
transgenic podocytes = test: Direct visualization (sequential photographs) of plated podocytes; assay type: cell-based, mouse; settings: addition of ATRA
Procedure: Cellular proliferation was also assessed through direct visualization of 10 cm plated cells at d 1, 2, 4, 6 and 8 growth restriction. Proliferation was assessed by the number of cells seen within a small circle marked on the plate. A total of four circles were marked and observed per plate. The circles were numbered #1-4 and photographed at the above time points. One exemplary circle was chosen per plate and followed through all time points. The four groups were compared at all time points.

[2] = system: heat sensitive mouse podocytes; test: MTT cell proliferation assay, heat sensitive mouse podocytes (HSMP), growth permissive; assay type: cell-based; settings: heat sensitive mouse podocytes under growth permissive conditions; at higher concentrations than rat podocytes
Procedure: as §2

rat podocytes [3] = test: Immunofluorescent staining of cultured rat podocytes (nephrin, podocin)
[4] = system: heat sensitive mouse podocytes; test: Immunofluorescent staining of cultured HSMP (nephrin, podocin); settings: 200 μM ATRA
cultured rat podocytes = test: Cell morphology by scanning electron microscopy, cultured rat podocytes; assay type: cell-based
Procedure: as §2
Cell morphology was carefully examined under light microscopy on an inverted scope. Cellular morphology was also examined by scanning electron microscopy on adherent cells fixed in half-strength Karnovsky's solution.

rat podocytes [5] = test: MTT cell proliferation assay, rat podocytes
[6] = ATRA treated Tg mice (5 animals)

CC1=C(/C=C/C(C)=C/C=C/C(C)=C/C(=O)O)C(C)(C)CCC1 [ATRA, all-trans retinoic acid]
MTT absorbance (mouse podocytes): significantly reduced MTT absorbance
nephrin protein level (Western blot) (primary mouse podocytes; 1 μM ATRA): increased the protein levels
podocin protein level (Western blot) (primary mouse podocytes; 1 μM ATRA): increased the protein levels
nephrin protein level (Western blot) (primary mouse podocytes; 5 μM ATRA): increased the protein levels
podocin protein level (Western blot) (primary mouse podocytes; 5 μM ATRA): increased the protein levels
collapsed glomeruli [1, 6]: no collapsed glomeruli
glomeruli with 0-25% sclerosis [1, 6]: 4.8%
glomeruli with 25-50 sclerosis [1, 6]: 1.2%
glomeruli with 50-75% or 75-100% sclerosis [1, 6]: No glomeruli were seen
glomeruli with no sclerosis ([1]; ATRA treated Tg mice (5 animals), 50 glomeruli per tissue sample): 94%
segmental sclerosis vs carrier treated transgenic animals ([1]; Tg mice, 4 months of life): reduced the sclerosis by a statistically significant amount
serum BUN ([1]; the different groups): no significant difference
proteinuria vs carrier treated transgenic animals (Tg C) ([1]; transgenic mice, ATRA 16 mg/kg intraperitoneal three times a week): tended to have less proteinuria
significance of difference in proteinuria vs carrier treated animals ([1]; transgenic mice, all other time points): not significant
significance of difference in proteinuria vs carrier treated animals ([1]; transgenic mice, at 80 days): statistically significant
interstitial disease score (tubular dilatation) ([1]; two ATRA treated Tg animals): no tubular dilatation
proliferation of transgenic podocytes (sequential photographs, 10 cm culture dishes) (transgenic podocytes): attenuated
MTT absorbance [2]: significantly reduced MTT absorbance
podocin immunostaining compared to control (rat podocytes [3]; cultured rat podocytes, OptM ATRA): increased immunostaining
nephrin immunostaining compared to control cells exposed to vehicle (rat podocytes [3]; undifferentiated and proliferating rat podocytes, 10 μM ATRA): nephrin immunostaining increased
podocin immunostaining compared to control ([4]; HSMP): increased immunostaining
nephrin immunostaining compared to control cells exposed to vehicle ([4]; heat sensitive mouse podocytes): nephrin immunostaining increased
process formation (scanning electron microscopy) (cultured rat podocytes; 1 μM ATRA): resulted in the presence of processes
process formation (scanning electron microscopy) (cultured rat podocytes; Ten 1 μM ATRA): marked increase in the number and length of processes
rat podocyte proliferation (viable cell number by MTT assay) (rat podocytes [5]; 1 μM, 5 μM, 10 μM, 50 μM, 200 μM ATRA, FIG. 1): reduced rat podocyte proliferation in a concentration-dependent fashion
MTT absorbance compared to control cells (rat podocytes [5]; rat podocytes, beginning at one μM, P<0.001): significantly reduced MTT absorbance
